Columns and labels:
Format in all cases: biochemical
[1] = target: T1, Kit (Homo sapiens, UniProt P10721); assay: AlphaScreen kinase assay, Kit; conditions: read-out: IC50, activity toward kinase Kit
T1 construct: P1332.N6 BI PTP KIT M552-K948-X COD; His6 (N); made in house; host or cells: E. coli (PTP1B co-expressed)

[2] = target: T2, B-Raf V600E (Homo sapiens, UniProt P15056, V600E); assay: AlphaScreen kinase assay, B-Raf V600E; conditions: read-out: IC50, activity toward kinase B-Raf V600E
T2 construct: P4254. pFastBacBD-CDC37 BRAF D437-K722-X, V600E; His6 with pFastBac HT leader (TEV site) (N); made in house; host or cells: Sf9 (baculovirus; chaperone CDC37 co-expressed)

[3] = target: T3, Fms (Homo sapiens, UniProt P07333); assay: AlphaScreen kinase assay, Fms; conditions: read-out: IC50, activity toward kinase Fms
T3 construct: purchased Upstate Biotechnology

[4] = target: T4, Yes (Homo sapiens, UniProt P07947); assay: Z'-Lyte FRET kinase assay (Invitrogen), Yes; conditions: read-out: IC50, activity toward kinase Yes
T4 construct: purchased Invitrogen (Carlsbad, Calif.), screening service
In short: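 Z′-Lyte FRET assay: kinase phosphorylates 2 μM peptide substrate at 10 μM ATP in 50 mM HEPES pH 7.5, 50 mM MgCl2, 5 mM EGTA, 0.05% BRIJ-35, 1% DMSO, 1 h at room temperature. Protease development 1 h; coumarin/fluorescein emission ratio gives phosphorylation extent over compound concentration curves.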

[5] = target: T5, Kdr (Homo sapiens, UniProt P35968); assay: Z'-Lyte FRET kinase assay (Invitrogen), Kdr; conditions: read-out: IC50, activity toward kinase Kdr
T5 construct: purchased Invitrogen (assay run by Invitrogen)

[6] = target: T6, Ret (Homo sapiens, UniProt P07949); assay: AlphaScreen kinase assay, Ret; conditions: read-out: IC50, activity toward kinase Ret
T6 construct: P1378.pET-SF BI-PTP RET H661-R1012 HIS; made in house
T6 sequence (P07949 with tags, fused parts or gaps): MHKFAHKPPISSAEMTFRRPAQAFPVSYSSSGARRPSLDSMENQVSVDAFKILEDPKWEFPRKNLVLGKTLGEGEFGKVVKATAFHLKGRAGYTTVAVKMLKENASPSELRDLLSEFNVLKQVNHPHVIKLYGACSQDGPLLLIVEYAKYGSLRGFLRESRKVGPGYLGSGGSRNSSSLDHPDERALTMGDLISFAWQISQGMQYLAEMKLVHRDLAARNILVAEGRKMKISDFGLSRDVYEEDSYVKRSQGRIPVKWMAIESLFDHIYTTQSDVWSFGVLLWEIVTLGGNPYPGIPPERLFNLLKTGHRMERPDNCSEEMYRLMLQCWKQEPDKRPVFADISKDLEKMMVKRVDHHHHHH

[7] = target: T7, B-Raf (Homo sapiens, UniProt P15056); assay: AlphaScreen kinase assay, B-Raf; conditions: read-out: IC50, activity toward kinase B-Raf
T7 construct: purchased Upstate Biotechnology

[8] = target: T8, Btk (Homo sapiens, UniProt Q06187); assay: Z'-Lyte FRET kinase assay (Invitrogen), Btk; conditions: read-out: IC50, activity toward kinase Btk
T8 construct: purchased Invitrogen (assay run by Invitrogen)

[9] = target: T9, FGFR1 (Homo sapiens, UniProt P11362, C488A/C584S); assay: AlphaScreen kinase assay, FGFR1; conditions: read-out: IC50, activity toward kinase FGFR
T9 construct: P1351.pET N6 BI-PTP FGFR A458-E765-X C488A, C584S; made in house; host or cells: E. coli (PTP1B co-expressed)

Measured: IC50

T5 sequence (P35968 20-1356): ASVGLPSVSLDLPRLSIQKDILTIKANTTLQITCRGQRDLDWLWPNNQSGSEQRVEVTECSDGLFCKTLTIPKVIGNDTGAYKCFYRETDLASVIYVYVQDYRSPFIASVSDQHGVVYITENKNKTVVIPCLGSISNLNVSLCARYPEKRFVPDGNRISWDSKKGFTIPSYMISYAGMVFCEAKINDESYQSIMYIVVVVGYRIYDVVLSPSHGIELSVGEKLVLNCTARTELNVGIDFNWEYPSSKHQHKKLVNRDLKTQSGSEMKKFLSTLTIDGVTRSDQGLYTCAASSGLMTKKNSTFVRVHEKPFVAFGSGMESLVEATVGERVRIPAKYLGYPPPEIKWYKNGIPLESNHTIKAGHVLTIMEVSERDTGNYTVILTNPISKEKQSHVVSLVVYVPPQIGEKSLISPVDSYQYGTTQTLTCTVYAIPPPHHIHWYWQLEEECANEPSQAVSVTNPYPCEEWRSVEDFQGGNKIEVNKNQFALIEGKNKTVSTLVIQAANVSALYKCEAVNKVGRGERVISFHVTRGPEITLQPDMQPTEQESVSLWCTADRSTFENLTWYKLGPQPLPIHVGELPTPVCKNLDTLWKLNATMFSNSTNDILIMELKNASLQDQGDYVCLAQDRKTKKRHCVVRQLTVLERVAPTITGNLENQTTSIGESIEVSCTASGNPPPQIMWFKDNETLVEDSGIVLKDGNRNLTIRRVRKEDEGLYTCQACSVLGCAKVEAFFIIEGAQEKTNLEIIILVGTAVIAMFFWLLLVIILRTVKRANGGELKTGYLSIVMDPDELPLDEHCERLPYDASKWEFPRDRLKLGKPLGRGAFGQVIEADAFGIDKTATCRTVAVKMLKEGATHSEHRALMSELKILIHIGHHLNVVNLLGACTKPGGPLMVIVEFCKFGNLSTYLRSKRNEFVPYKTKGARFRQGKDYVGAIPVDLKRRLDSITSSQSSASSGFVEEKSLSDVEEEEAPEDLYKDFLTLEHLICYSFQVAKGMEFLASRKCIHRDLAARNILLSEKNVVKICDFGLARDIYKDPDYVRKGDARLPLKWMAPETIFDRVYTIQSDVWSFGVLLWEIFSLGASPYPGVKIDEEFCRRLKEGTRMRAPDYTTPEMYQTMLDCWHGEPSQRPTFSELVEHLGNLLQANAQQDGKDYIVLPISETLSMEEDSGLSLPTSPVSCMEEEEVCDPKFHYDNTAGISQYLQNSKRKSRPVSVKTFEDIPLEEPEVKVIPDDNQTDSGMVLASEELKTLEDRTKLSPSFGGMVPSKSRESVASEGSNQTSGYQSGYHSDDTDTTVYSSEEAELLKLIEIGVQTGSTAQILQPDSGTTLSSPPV
T2 sequence (P15056 with tags, fused parts or gaps V600E): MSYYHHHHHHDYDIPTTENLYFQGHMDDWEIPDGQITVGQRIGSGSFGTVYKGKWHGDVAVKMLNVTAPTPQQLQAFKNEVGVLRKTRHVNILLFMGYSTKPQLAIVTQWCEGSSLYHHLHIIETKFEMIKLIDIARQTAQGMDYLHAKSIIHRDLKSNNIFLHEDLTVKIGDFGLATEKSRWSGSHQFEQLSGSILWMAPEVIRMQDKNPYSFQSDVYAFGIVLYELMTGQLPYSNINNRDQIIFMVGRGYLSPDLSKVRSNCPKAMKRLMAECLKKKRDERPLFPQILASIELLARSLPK
T9 sequence (P11362 458-765 C488A/C584S): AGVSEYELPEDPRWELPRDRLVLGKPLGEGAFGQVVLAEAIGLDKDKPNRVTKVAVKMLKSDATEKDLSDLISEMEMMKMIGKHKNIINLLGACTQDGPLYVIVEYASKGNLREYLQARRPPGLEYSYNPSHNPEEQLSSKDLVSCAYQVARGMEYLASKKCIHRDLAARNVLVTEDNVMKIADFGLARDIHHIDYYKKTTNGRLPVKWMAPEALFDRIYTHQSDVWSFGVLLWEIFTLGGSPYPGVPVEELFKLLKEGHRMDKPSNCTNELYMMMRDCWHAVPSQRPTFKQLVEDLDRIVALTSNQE
T7 sequence (P15056 whole entry): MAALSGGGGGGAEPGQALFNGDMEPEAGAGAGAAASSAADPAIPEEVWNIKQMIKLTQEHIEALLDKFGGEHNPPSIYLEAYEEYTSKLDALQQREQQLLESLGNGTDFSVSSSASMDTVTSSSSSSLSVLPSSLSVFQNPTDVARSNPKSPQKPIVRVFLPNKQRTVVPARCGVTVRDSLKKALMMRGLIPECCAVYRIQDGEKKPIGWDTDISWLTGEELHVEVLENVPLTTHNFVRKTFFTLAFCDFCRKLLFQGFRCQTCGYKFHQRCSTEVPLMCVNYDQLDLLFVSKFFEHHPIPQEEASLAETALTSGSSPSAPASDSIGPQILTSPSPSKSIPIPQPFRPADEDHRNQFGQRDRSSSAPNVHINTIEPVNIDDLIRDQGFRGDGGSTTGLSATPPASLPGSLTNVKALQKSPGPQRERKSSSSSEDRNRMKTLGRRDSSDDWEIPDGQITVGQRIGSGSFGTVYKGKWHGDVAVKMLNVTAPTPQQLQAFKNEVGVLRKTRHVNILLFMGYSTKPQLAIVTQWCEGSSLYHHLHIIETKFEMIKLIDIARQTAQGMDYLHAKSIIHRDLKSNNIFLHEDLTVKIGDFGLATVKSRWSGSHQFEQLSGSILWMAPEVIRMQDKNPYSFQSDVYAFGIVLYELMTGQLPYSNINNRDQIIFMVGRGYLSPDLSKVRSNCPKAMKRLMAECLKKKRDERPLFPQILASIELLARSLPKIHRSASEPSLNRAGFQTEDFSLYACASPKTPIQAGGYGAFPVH
T8 sequence (Q06187 whole entry): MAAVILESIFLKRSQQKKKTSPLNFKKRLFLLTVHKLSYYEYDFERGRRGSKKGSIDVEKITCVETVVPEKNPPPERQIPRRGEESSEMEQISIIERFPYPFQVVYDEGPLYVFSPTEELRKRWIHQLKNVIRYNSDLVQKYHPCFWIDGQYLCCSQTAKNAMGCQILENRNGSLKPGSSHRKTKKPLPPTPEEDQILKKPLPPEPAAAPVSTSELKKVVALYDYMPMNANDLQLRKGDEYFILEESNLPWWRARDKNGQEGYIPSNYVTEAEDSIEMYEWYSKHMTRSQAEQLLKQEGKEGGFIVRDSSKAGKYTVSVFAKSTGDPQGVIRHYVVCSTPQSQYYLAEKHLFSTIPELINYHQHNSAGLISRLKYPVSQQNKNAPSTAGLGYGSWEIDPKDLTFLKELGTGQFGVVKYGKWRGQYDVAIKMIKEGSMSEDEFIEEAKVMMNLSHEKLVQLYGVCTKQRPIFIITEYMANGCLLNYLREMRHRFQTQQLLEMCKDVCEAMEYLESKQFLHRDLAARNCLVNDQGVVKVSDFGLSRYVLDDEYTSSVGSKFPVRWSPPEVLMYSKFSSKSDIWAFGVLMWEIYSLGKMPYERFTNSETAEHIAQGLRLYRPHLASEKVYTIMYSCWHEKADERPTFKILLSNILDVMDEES
T4 sequence (P07947 whole entry): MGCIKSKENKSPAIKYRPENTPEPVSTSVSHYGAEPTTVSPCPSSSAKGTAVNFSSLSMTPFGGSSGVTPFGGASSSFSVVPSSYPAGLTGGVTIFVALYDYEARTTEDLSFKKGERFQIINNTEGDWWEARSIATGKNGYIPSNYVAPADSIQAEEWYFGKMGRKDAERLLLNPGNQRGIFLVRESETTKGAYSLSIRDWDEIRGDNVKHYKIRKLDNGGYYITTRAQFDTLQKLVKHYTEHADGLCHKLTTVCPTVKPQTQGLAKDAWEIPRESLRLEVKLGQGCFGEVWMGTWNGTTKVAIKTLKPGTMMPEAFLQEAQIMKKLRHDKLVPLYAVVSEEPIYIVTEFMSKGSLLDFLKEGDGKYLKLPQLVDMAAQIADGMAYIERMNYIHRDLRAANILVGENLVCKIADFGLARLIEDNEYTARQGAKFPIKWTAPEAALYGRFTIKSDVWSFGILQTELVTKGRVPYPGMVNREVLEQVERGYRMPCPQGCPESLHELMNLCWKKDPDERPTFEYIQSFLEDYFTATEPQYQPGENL
T1 sequence (P10721 with tags, fused parts or gaps): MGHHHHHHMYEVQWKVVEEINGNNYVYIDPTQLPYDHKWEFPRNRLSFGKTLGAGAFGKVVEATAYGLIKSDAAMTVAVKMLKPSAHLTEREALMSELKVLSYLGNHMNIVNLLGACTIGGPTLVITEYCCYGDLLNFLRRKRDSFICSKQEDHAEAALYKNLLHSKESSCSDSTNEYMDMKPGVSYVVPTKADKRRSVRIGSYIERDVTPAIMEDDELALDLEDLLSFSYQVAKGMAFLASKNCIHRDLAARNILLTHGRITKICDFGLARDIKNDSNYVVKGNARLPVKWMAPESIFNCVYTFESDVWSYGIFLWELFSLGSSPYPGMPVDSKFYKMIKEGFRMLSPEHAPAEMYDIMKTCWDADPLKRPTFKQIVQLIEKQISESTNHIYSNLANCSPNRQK

CCCS(=O)(=O)Nc1ccc(F)c(C(=O)c2c[nH]c3ncc(-c4cccnc4)cc23)c1F [Compound P-0088, Propane-1-sulfonic acid [2,4-difluoro-3-(5-pyridin-3-yl-1H-pyrrolo[2,3-b]pyridine-3-carbonyl)-phenyl]-amide]
≤ 10 µM: all assays above

COc1ccc(F)c(C(=O)c2c[nH]c3ncc(-c4cccnc4)cc23)c1 [Compound P-0090]
≤ 10 µM: all assays above
